Experimental data taken from PMC3935456 (Journal of biomolecular screening, 2011).

Columns and labels:
LIM kinase 1 (LIMK1) [1] = target: T1, LIM kinase 1 (LIMK1) (Homo sapiens, UniProt P53667); test: Kinase Glo luciferase ATP-depletion assay with recombinant cofilin, […] ATP; format: biochemical
LIM kinase 1 (LIMK1) [2] = target: T1, LIM kinase 1 (LIMK1); test: apparent Km determination in luciferase ATP-depletion kinase assay with cofilin; format: biochemical

T1 sequence (P53667 339-604 limits assumed): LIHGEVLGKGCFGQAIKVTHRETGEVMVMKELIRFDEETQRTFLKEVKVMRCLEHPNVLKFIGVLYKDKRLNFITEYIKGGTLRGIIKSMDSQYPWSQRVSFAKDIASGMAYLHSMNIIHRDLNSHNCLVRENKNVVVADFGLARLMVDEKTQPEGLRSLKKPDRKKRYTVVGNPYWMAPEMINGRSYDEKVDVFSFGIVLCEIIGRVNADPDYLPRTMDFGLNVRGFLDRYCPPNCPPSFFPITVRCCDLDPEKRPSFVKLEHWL

Row | SMILES | IC50 (LIM kinase 1 (LIMK1) [1]) | Km (LIM kinase 1 (LIMK1) [2])
1 | COc1c(C=O)c(O)cc2c1C(=O)c1ccccc1C2=O [damnacanthal] | 19 nM | 
2 | Nc1ncnc2c1ncn2[C@@H]1O[C@H](COP(=O)(O)OP(=O)(O)OP(=O)(O)O)[C@@H](O)[C@H]1O [ATP] |  | 10 to 20 µM
